Measurements as given in patent US6015577A, “Pharmaceutical compositions containing dipyridamole or mopidamol and acetylsalicylic acid or the physiologically acceptable salts thereof, processes for preparing them and their use in treating clot formation” (Thomae GmbH; Dr. Karl, priority 1986, dated 2000).

Tested on: clot formation in vessels of the mesenterium
Experiment: electrically induced clot formation in mesenteric vein, clot size monitored by intravital microscope
Assay type: in vivo, rat
Details: 2.5 mg/kg acetylsalicylic acid or 5 mg/kg dipyridamole p.o. alone; FIGS. 5 and 6
Description: The antithrombotic activity achieved with a simultaneous oral administration, according to the invention, of 5 mg/kg of dipyridamole and 0.05 mg/kg of acetylsalicylic acid (weight ratio of dipyridamole to acetylsalicylic acid=100) and, by comparison, during sequential oral administration (according to European Application No. 85 108 761.9) of 5 mg/kg of dipyridamole and 5 mg/kg of acetylsalicylic acid to rats (FW 49) with a body weight of from 60 to 80 g before the start of the experiment was investigated by applying a clotting stimulus to vessels of the mesenterium and by monitoring the size of the clots over a period of time. Groups of 5 animals were used. […] An interval of 1 hour was left between the simultaneous oral administration of the substances according to the invention and the application of the clot or the actual carrying out of the measurements. […]
Using an intravital microscope to monitor the process, a platinum electrode was placed on an outer blood vessel wall of the mesenterium. […] The size of the clot is measured at 10 second intervals and later at 30 second intervals over a period of up to 20 minutes after the stimulation of the blood vessel and is given as the size of the clot (at right angles to the blood vessel wall) as a percentage of the internal diameter of the blood vessel.

Structure (SMILES)	reduction in the clot size, single substance
OCCN(CCO)c1nc(N2CCCCC2)c2nc(N(CCO)CCO)nc(N3CCCCC3)c2n1 [Dipyridamole, 2,6-bis-(diethanolamino)-4,8-dipiperidino-(5,4-d)-pyrimidine]	do not bring about any significant reduction in the clot size
CC(=O)Oc1ccccc1C(=O)O [Acetylsalicylic acid, acetylsalicylic acid]	do not bring about any significant reduction in the clot size
